Test results: US20060160851A1, “Substituted piperidine carbamates” (Novo Nordisk A/S, priority 2003, published 2006)

target: T1, hormone sensitive lipase (Homo sapiens, UniProt Q05469); test: Assay 3190.1: percent inhibition of hormone sensitive lipase by compound at 10 μM (fluorochrome-labeled triacylglyceride emulsion, HSL_FL); type: biochemical; details: 10 μM sample concentration; % activity relative to non-inhibited sample (no compound); 30 min preincubation at 25° C., 120 min incubation at 37° C.
T1 construct: made in house
T1 sequence (Q05469 1-1076): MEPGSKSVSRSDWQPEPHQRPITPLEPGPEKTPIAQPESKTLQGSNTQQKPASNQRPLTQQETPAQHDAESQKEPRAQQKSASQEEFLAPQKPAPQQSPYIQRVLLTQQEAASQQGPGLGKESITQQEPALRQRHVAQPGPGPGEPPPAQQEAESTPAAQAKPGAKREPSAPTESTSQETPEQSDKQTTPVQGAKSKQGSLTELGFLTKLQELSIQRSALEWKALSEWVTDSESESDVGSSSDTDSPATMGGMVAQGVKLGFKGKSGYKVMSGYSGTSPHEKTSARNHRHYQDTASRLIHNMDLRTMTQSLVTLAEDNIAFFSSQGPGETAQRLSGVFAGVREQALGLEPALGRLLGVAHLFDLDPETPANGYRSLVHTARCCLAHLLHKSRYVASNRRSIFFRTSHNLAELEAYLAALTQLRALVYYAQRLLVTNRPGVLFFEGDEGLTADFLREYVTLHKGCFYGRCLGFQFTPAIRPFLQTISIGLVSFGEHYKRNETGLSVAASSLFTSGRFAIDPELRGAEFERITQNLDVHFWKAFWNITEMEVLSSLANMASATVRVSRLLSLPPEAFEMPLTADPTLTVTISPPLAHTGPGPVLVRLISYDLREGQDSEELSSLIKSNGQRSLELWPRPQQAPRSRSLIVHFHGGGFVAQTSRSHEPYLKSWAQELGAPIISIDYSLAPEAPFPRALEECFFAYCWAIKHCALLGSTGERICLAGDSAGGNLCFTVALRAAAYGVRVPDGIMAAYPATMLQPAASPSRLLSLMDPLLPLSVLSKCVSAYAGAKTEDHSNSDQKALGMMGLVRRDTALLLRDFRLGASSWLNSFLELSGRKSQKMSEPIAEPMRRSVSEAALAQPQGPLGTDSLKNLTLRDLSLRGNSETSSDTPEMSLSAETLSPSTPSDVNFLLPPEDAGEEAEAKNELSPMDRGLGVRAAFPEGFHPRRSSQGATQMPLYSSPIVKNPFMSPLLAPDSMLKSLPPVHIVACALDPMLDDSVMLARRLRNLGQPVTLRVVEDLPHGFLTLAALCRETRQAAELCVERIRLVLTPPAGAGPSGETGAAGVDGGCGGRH
Excerpt: The Hormone-sensitive lipase was provided by Dr. Cecilia Holm, from Lund University Sweden or produced and purified by Novo Nordisk (NN) using the reagents and protocols used by Dr. Holm. The substrates used are: ^3H-labeled triolein (TO) from Amersham, Buckinghamshire, U.K. cat No. TRA191; 5-20 Ci/mmol dissolved in toluene, triolein (Sigma, Cat. No. T-1740), fluorochrome-labeled triacylglyceride (cis-octadec-9-enoic acid 2-[12-(7-nitrobenzo[1,2,5]oxadiazol-4-ylamino)dodecanoyloxy]-1-cis-octadec-9-enoyloxymethyl-ethyl ester) prepared by Novo Nordisk (NN) by conventional methods, and 1,3-(di[^3H]-stearin), 2-(PEG-Biotin)glycerol prepared in collaboration with Amersham Pharmacia Biotech, UK and described in WO 01/073442. Phosphatidyl choline (PC) and phosphatidyl inositol (PI) are from Sigma (St Luis Mo. cat. Nos. P-3556 and P-5954 respectively). All other reagents are of commercial grade and obtained from various commercial sources.
3190.1: Assay for determination of percent inhibition of hormone sensitive lipase by compound at 10 μM sample concentration.
A lipid emulsion with fluorochrome-labeled triacylglyceride and phospholipid is used as substrate with a standard concentration of highly purified HSL (12 μg/mL initial concentration corresponding to 600 ng/mL final concentration). BSA is added as product acceptor receptor. The transfer of the fluorochrome from the lipid phase to the water (BSA) phase changes the fluorescent properties of the fluorochrome. The changes can be monitored on a fluorimeter with an excitation wavelength of 450 nm and an emission wavelength of 545 nm.
Compound and HSL (20 μL compound, 10 μL enzyme and 70 μL PED-BSA buffer) is pre-incubated for 30 min at 25° C. before addition of substrate (100 μL). Amount of formed product is measured after 120 min incubation at 37° C.
Results are given as percent activity relative to a non-inhibited sample (no compound).

| Compound | Test 3190.1 HSL_FL % ACTIVITY |
| --- | --- |
| CCOC(=O)CCc1ccc(OC2CCN(C(=O)Oc3ccc(Oc4ccc(C(F)(F)F)cn4)cc3)CC2)cc1 [Example 31, -[4-(2-Ethoxycarbonyl-ethyl)-phenoxy]-piperidine-1-carboxylic acid 4-(5-trifluoromethyl-pyridin-2-yloxy)-phenyl ester] | 0% |
| 4-(4-Carboxymethyl-phenoxy)-piperidine-1-carboxylic acid 4-[2-(1-methyl-1H-tetrazol-5-yloxy)-ethyl]-phenyl ester [Example 94] | 6% |

same assay, conditions: 10 μM sample concentration; % activity relative to non-inhibited sample (no compound); 30 min preincubation at 25° C., 120 min incubation at 37° C.; read-out: Test 3190.1 HSL_FL % ACTIVITY

| Compound | activity at 10 µM |
| --- | --- |
| O=C(O)c1ccc(-c2ccc(OC3CCN(C(=O)Oc4ccc(Oc5ccc(C(F)(F)F)cn5)cc4)CC3)cc2)cc1 [Example 35, 4-(4′-Carboxy-biphenyl-4-yloxy)-piperidine-1-carboxylic acid 4-(5-trifluoromethyl-pyridin-2-yloxy)-phenyl ester] | 14% |
| Cc1ccc(CC2CCN(C(=O)Oc3ccc(Cc4ccc(C(F)(F)F)cc4)cc3)CC2)nc1 [Example 71, 4-(5-Methyl-pyridin-2-ylmethyl)-piperidine-1-carboxylic acid 4-(4-trifluoromethyl-benzyl)-phenyl ester] | 9% |
| O=C(O)Cc1ccc(OCC2CCN(C(=O)Oc3ccc(Oc4ccc(C(F)(F)F)cn4)cc3)CC2)cc1 [Example 44, 4-(4-Carboxymethyl-phenoxymethyl)-piperidine-1-carboxylic acid 4-(5-trifluoromethyl-pyridin-2-yloxy)-phenyl ester] | 5% |
| CN(CCC1CCN(C(=O)Oc2ccc(Oc3ccc(C(F)(F)F)cn3)cc2)CC1)Cc1ccccc1 [Example 1, 4-[2-(Benzyl-methyl-amino)-ethyl]-piperidine-1-carboxylic acid 4-(5-trifluoromethyl-pyridin-2-yloxy)-phenyl ester] | 1% |
| O=C(O)CCc1cccc(OC2CCN(C(=O)Oc3ccc(Oc4ccc(C(F)(F)F)cn4)cc3)CC2)c1 [Example 112, 4-[3-(2-Carboxy-ethyl)-phenoxy]-piperidine-1-carboxylic acid 4-(5-trifluoromethyl-pyridin-2-yloxy)-phenyl ester] | 14% |
| CC1(C)CC(=O)N(CCc2ccc(OC(=O)N3CCC(Oc4ccc(C(=O)O)cc4)CC3)cc2)C(=O)C1 [Example 59, 4-(4-Carboxy-phenoxy)-piperidine-1-carboxylic acid 4-[2-(4,4-dimethyl-2,6-dioxo-piperidin-1-yl)-ethyl]-phenyl ester] | 31% |
| O=C(Oc1ccc(Oc2ccc(C(F)(F)F)cn2)cc1)N1CCC(Oc2ccc(N3CCN(C4CCCC4)CC3)cc2)CC1 [Example 22, 4-[4-(4-Cyclopentyl-piperazin-1-yl)-phenoxy]-piperidine-1-carboxylic acid 4-(5-trifluoromethyl-pyridin-2-yloxy)-phenyl ester] | 4% |

Continued, values first:

| activity at 10 µM | Compound |
| --- | --- |
| 6% | O=C(O)Cc1ccc(OC2CCN(C(=O)Oc3ccc(Oc4ccc(C(F)(F)F)cc4)cc3)CC2)cc1 [Example 103, 4-(4-Carboxymethyl-phenoxy)-piperidine-1-carboxylic acid 4-(4-trifluoromethyl-phenoxy)-phenyl ester] |
| 1% | Cc1ccc(Cc2ccc(OC(=O)N3CCC(On4cccn4)CC3)cc2)nc1 [Example 48, 4-(Pyrazol-1-yloxy)-piperidine-1-carboxylic acid 4-(5-methyl-pyridin-2-ylmethyl)-phenyl ester] |
| 3% | O=C(Oc1ccc(Oc2ccc(C(F)(F)F)cn2)cc1)N1CCC(Cc2ccsc2)CC1 [Example 68, 4-Thiophen-3-ylmethyl-piperidine-1-carboxylic acid 4-(5-trifluoromethyl-pyridin-2-yloxy)-phenyl ester] |
| 1% | O=C(O)CCc1ccc(OC2CCN(C(=O)Oc3ccc(Oc4ccc(C(F)(F)F)cn4)cc3)CC2)cc1 [Example 37, 4-[4-(2-Carboxy-ethyl)-phenoxy]-piperidine-1-carboxylic acid 4-(5-trifluoromethyl-pyridin-2-yloxy)-phenyl ester] |
| 8% | O=C(O)c1coc(-c2ccc(OC3CCN(C(=O)Oc4ccc(Oc5ccc(C(F)(F)F)cn5)cc4)CC3)cc2)n1 [Example 36, 4-[4-(4-Carboxy-oxazol-2-yl)-phenoxy]-piperidine-1-carboxylic acid 4-(5-trifluoromethyl-pyridin-2-yloxy)-phenyl ester] |
| 11% | O=C(Oc1ccc(Oc2ccc(C(F)(F)F)cn2)cc1)N1CCC(On2nccc2Sc2ccccc2)CC1 [Example 12, 4-(5-Phenylsulfanyl-pyrazol-1-yloxy)-piperidine-1-carboxylic acid 4-(5-trifluoromethyl-pyridin-2-yloxy)-phenyl ester] |
| 15% | O=C(Nc1ccc(OC(=O)N2CCC(On3cccn3)CC2)nc1)c1ccccc1 [Example 61, 4-(Pyrazol-1-yloxy)-piperidine-1-carboxylic acid 5-benzoylamino-pyridin-2-yl ester] |
| 3% | Cc1ccc(Cc2ccc(OC(=O)N3CCC(Oc4ccccc4)CC3)cc2)cn1 [Example 50, 4-Phenoxy-piperidine-1-carboxylic acid 4-(6-methyl-pyridin-3-ylmethyl)-phenyl ester] |
| 1% | C=CCOC(=O)Cc1ccc(OC2CCN(C(=O)Oc3ccc(CCN4C(=O)CC(C)(C)CC4=O)cc3)CC2)cc1 [Example 55, 4-(4-Allyloxycarbonylmethyl-phenoxy)-piperidine-1-carboxylic acid 4-[2-(4,4-dimethyl-2,6-dioxo-piperidin-1-yl)-ethyl]-phenyl ester] |
| 8% | O=C(O)Cc1ccc(OC2CCN(C(=O)Oc3ccc(Oc4ccc(Cl)cn4)cc3)CC2)cc1 [Example 117, 4-(4-Carboxymethyl-phenoxy)-piperidine-1-carboxylic acid 4-(5-chloro-pyridin-2-yloxy)-phenyl ester] |
| 5% | O=C(Oc1ccc(Oc2ccc(C(F)(F)F)cn2)cc1)N1CCC(Sc2nccn2-c2cccnc2)CC1 [Example 3, 4-(1-Pyridin-3-yl-1H-imidazol-2-ylsulfanyl)-piperidine-1-carboxylic acid 4-(5-trifluoromethyl-pyridin-2-yloxy)-phenyl ester] |
| 15% | O=C(O)Cc1ccc(OC2CCN(C(=O)Oc3ccc(CCOc4ccc(-n5cnnc5)cc4)cc3)CC2)cc1 [Example 97, 4-(4-Carboxymethyl-phenoxy)-piperidine-1-carboxylic acid 4-[2-(4-[1,2,4]triazol-4-yl-phenoxy)-ethyl]-phenyl ester] |
| 3% | O=C(O)Cc1ccc(OC2CCN(C(=O)Oc3ccc(C(=O)NCC4CCCCC4)cc3)CC2)cc1 [Example 88, 4-(4-Carboxymethyl-phenoxy)-piperidine-1-carboxylic acid 4-(cyclohexylmethyl-carbamoyl)-phenyl ester] |
| 3% | O=C(O)Cc1ccc(CC2CCN(C(=O)Oc3ccc(Cc4ccc(C(F)(F)F)cc4)cc3)CC2)cc1 [Example 74, 4-(4-Carboxymethyl-benzyl)-piperidine-1-carboxylic acid 4-(4-trifluoromethyl-benzyl)-phenyl ester] |
